The values that follow are results of earlier work, collected in patent US20100029602A1, “LOW-DOSE MOMETASONE FORMULATIONS” (Perrigo Israel Pharmaceuticals Ltd., priority 2007, published 2010).

With `C[C@@H]1C[C@H]2[C@@H]3CCC4=CC(=O)C=C[C@]4(C)[C@@]3(Cl)[C@@H](O)C[C@]2(C)[C@@]1(OC(=O)c1ccco1)C(=O)CCl` [Mometasone furoate], the “solubility in ethyl alcohol” value (ethyl alcohol) is “moderately soluble”. For the same molecule, the solubility in octanol entry (octanol) is recorded as “slightly soluble”. In addition, the solubility in water entry (water) is listed as “practically insoluble”.
